Patent US20240360101A1, “PHARMACEUTICAL SALTS OF A CHK-1 INHIBITOR” (SENTINEL ONCOLOGY LIMITED, priority 2021, published 2024)
Counter-ions that a name gives are not always drawn.

Experiments:
[1] = Gravimetric vapour sorption (GVS); format: physicochemical; details: for crystalline form (XRPD) after GVS at extremes of humidity: 0% RH and 90% RH, result in words; for GVS weight loss, initial desorption cycle: from 50% RH to 0% RH; for GVS water gain, subsequent sorption cycle: up to 90% RH
Method: Sorption isotherms were obtained using a Hiden Isochema moisture sorption analyser (model IGAsorp), controlled by IGAsorp Systems Software V6.50.48. The sample was maintained at a constant temperature (25° C.) by the instrument controls. The humidity was controlled by mixing streams of dry and wet nitrogen, with a total flow of 250 ml·min−. The instrument was verified for relative humidity (RH) content by measuring three calibrated Rotronic salt solutions (10-50-88%). The weight change of the sample was monitored as a function of humidity by a microbalance (accuracy+/−0.005 mg). A defined amount of sample was placed in a tared mesh stainless steel basket under ambient conditions. A full experimental cycle typically consisted of three scans (sorption, desorption and sorption) at a constant temperature (25° C.) and 10% RH intervals over a 0-90% range (60 minutes for each humidity level).

[2] = Solubility of the salts in biorelevant media; format: physicochemical; details: for solubility FaSSGF (pH 1.37): Fasted State Simulated Gastric Fluid; for solubility FaSSGF (pH 1.37) / solubility FaSSIF (pH 6.71) / solubility FeSSIF (pH 5.14): 25° C., 24 h, HPLC; for solubility FaSSIF (pH 6.71): Fasted State Simulated Intestinal Fluid; for solubility FeSSIF (pH 5.14): Fed State Simulated Intestinal Fluid; for solubility in FaSSGF (gastric fluid) compared with the free base: result in words
Method: Biorelevant media (DI H2O, FeSSIF, FaSSIF and FaSSGF) (2 mL) was charged. Samples were left to equilibrate (25° C.) over 24 h. Solubility measurements were taken using HPLC (see Method 1 above).

[3] = Two-week stability (HPLC purity); format: physicochemical; details: two-week storage at 25° C./60% RH and 40° C./75% RH; result in words
Method: HPLC analysis was carried out on an Agilent 1110/1200 series HPLC system. The column used was an Triart C18; 150×4.6 mm, 3.0 μm particle size (Ex Waters, PN: 186004644). The flow rate was 1.0 mL/min. Mobile phase A was Water:Trifluoroacetic acid (100:0.1%) and mobile phase B was Acetonitrile:Trifluoroacetic acid (100:0.1%). Detection was by UV at 302 nm. The injection volume was 5 μL, column temperature 40° C. and the following gradient was used: […]
Experimental: Maleate salt pattern B (30 mg) was placed into separate 15 mL type I glass vials. To these vials, a HDPE plastic cap was loosely attached to allow the ingress of moisture. The vials were then placed into ICH rated stability cabinets at 25° C./60% RH and 40° C./75% RH and in cold storage at 2-8° C. Following 2 weeks of storage these samples were removed from the stability cabinets and cold storage and the chemical purity assessed by HPLC (method 2). The relevant data was collected using a wavelength of 302 nm. The samples were prepared in MeCN:water (1:1).

SMILES: COc1cc(C2(F)CCN(C)CC2)ccc1-c1cc(Nc2cnc(C#N)cn2)n[nH]1 [Maleate Pattern A, 5-[[5-[4-(4-fluoro-1-methyl-4-piperidyl)-2-methoxy-phenyl]-1H-pyrazol-3-yl]amino]pyrazine-2-carbonitrile]
- crystalline form (XRPD) after GVS at extremes of humidity [1]: A new pattern was isolated at 0 and 90% RH and was named B
- GVS weight gain at 90% RH, following sorption cycles ([1]; 90% RH, following sorption cycles): 4 wt %
- GVS water loss, subsequent desorption cycle ([1]; down to 0% RH, 25° C.): 4%
- GVS weight gain, initial sorption cycle ([1]; from 50% RH to 90% RH, 25° C.): 1.5 wt %

SMILES: COc1cc(C2(F)CCN(C)CC2)ccc1-c1cc(Nc2cnc(C#N)cn2)n[nH]1 [bis-besylate pattern B, 5-[[5-[4-(4-fluoro-1-methyl-4-piperidyl)-2-methoxy-phenyl]-1H-pyrazol-3-yl]amino]pyrazine-2-carbonitrile]
- Aqueous solubility mg/mL 24 h: 0.06 mg/mL

SMILES: COc1cc(C2(F)CCN(C)CC2)ccc1-c1cc(Nc2cnc(C#N)cn2)n[nH]1 [bis-maleate pattern B, 5-[[5-[4-(4-fluoro-1-methyl-4-piperidyl)-2-methoxy-phenyl]-1H-pyrazol-3-yl]amino]pyrazine-2-carbonitrile]
- Aqueous solubility mg/mL 24 h: 0.15 mg/mL

SMILES: COc1cc(C2(F)CCN(C)CC2)ccc1-c1cc(Nc2cnc(C#N)cn2)n[nH]1 [tosylate pattern C, 5-[[5-[4-(4-fluoro-1-methyl-4-piperidyl)-2-methoxy-phenyl]-1H-pyrazol-3-yl]amino]pyrazine-2-carbonitrile]
- solubility FaSSGF (pH 1.37) [2]: 0.32 mg/mL
- solubility FaSSIF (pH 6.71) [2]: 0.04 mg/mL
- solubility FeSSIF (pH 5.14) [2]: 0.61 mg/mL
- Aqueous solubility mg/mL 24 h: 1.55 mg/mL

SMILES: COc1cc(C2(F)CCN(C)CC2)ccc1-c1cc(Nc2cnc(C#N)cn2)n[nH]1 [Naphthalene-2-Sulfonate Pattern A, 5-[[5-[4-(4-fluoro-1-methyl-4-piperidyl)-2-methoxy-phenyl]-1H-pyrazol-3-yl]amino]pyrazine-2-carbonitrile]
- crystalline form (XRPD) after GVS at extremes of humidity [1]: no change in the crystallinity of the solid occurred at extremes of humidity
- GVS weight loss, initial desorption cycle ([1]; 25° C.): 1 wt %
- GVS water gain, subsequent sorption cycle ([1]; 25° C.): ~2.25%

SMILES: COc1cc(C2(F)CCN(C)CC2)ccc1-c1cc(Nc2cnc(C#N)cn2)n[nH]1 [besylate pattern B, 5-[[5-[4-(4-fluoro-1-methyl-4-piperidyl)-2-methoxy-phenyl]-1H-pyrazol-3-yl]amino]pyrazine-2-carbonitrile]
- solubility FaSSGF (pH 1.37) [2]: 0.55 mg/mL
- solubility FaSSIF (pH 6.71) [2]: 0.04 mg/mL
- solubility FeSSIF (pH 5.14) [2]: 0.57 mg/mL
- GVS weight loss, initial desorption cycle ([1]; 25° C.): 1 wt %
- GVS water gain, subsequent sorption cycle ([1]; 25° C.): ~2.25%
- Aqueous solubility mg/mL 24 h: 1.18 mg/mL

SMILES: COc1cc(C2(F)CCN(C)CC2)ccc1-c1cc(Nc2cnc(C#N)cn2)n[nH]1 [sulphate pattern D, 5-[[5-[4-(4-fluoro-1-methyl-4-piperidyl)-2-methoxy-phenyl]-1H-pyrazol-3-yl]amino]pyrazine-2-carbonitrile]
- Aqueous solubility mg/mL 24 h: 1.6 mg/mL

SMILES: COc1cc(C2(F)CCN(C)CC2)ccc1-c1cc(Nc2cnc(C#N)cn2)n[nH]1 [Tosylate Pattern A, 5-[[5-[4-(4-fluoro-1-methyl-4-piperidyl)-2-methoxy-phenyl]-1H-pyrazol-3-yl]amino]pyrazine-2-carbonitrile]
- crystalline form (XRPD) after GVS at extremes of humidity [1]: No form change at 0% RH and 90% RH
- GVS sharp decrease, initial desorption ([1]; from 10% RH to 0% RH): ~3 wt %
- GVS steady increase, subsequent sorption ([1]; from 10% RH to 90% RH): ~1%
- GVS weight loss, initial desorption cycle ([1]; 25° C.): 3.5 wt %
- GVS steady decrease, initial desorption ([1]; from 50% RH to 10% RH): 0.5 wt %
- GVS sharp water gain, subsequent sorption ([1]; up to 10% RH): ~3%

SMILES: COc1cc(C2(F)CCN(C)CC2)ccc1-c1cc(Nc2cnc(C#N)cn2)n[nH]1 [oxalate pattern A, 5-[[5-[4-(4-fluoro-1-methyl-4-piperidyl)-2-methoxy-phenyl]-1H-pyrazol-3-yl]amino]pyrazine-2-carbonitrile]
- Aqueous solubility mg/mL 24 h: 3.16 mg/mL

SMILES: COc1cc(C2(F)CCN(C)CC2)ccc1-c1cc(Nc2cnc(C#N)cn2)n[nH]1 [maleate salt, 5-[[5-[4-(4-fluoro-1-methyl-4-piperidyl)-2-methoxy-phenyl]-1H-pyrazol-3-yl]amino]pyrazine-2-carbonitrile maleate]
- solubility in FaSSGF (gastric fluid) compared with the free base ([2]; listed as maleate, maleate): improved solubility over the free base in FaSSGF
- solubility in FaSSGF (gastric fluid) compared with the free base ([2]; maleate): improved solubility in gastric fluid
- physical, polymorphic and chemical stability on storage [3]: remained as a free flowing solid with no evidence of deliquescence or agglomeration and no change in polymorphic form with good chemical stability

SMILES: COc1cc(C2(F)CCN(C)CC2)ccc1-c1cc(Nc2cnc(C#N)cn2)n[nH]1 [malonate, 5-[[5-[4-(4-fluoro-1-methyl-4-piperidyl)-2-methoxy-phenyl]-1H-pyrazol-3-yl]amino]pyrazine-2-carbonitrile]
- solubility in FaSSGF (gastric fluid) compared with the free base [2]: improved solubility over the free base in FaSSGF

SMILES: COc1cc(C2(F)CCN(C)CC2)ccc1-c1cc(Nc2cnc(C#N)cn2)n[nH]1 [Besylate Pattern C, 5-[[5-[4-(4-fluoro-1-methyl-4-piperidyl)-2-methoxy-phenyl]-1H-pyrazol-3-yl]amino]pyrazine-2-carbonitrile]
- GVS sharp increase, sorption cycle ([1]; between 0% RH and 20% RH): ~2.5 wt %
- GVS weight loss, initial desorption cycle ([1]; 25° C.): ~3 wt %
- GVS water gain, subsequent sorption cycle ([1]; 25° C.): 3.75%

SMILES: COc1cc(C2(F)CCN(C)CC2)ccc1-c1cc(Nc2cnc(C#N)cn2)n[nH]1 [malonate pattern B, 5-[[5-[4-(4-fluoro-1-methyl-4-piperidyl)-2-methoxy-phenyl]-1H-pyrazol-3-yl]amino]pyrazine-2-carbonitrile]
- solubility FaSSGF (pH 1.37) [2]: 3.24 mg/mL
- solubility FeSSIF (pH 5.14) [2]: 0.27 mg/mL
- GVS sharp increase, sorption cycle ([1]; between 30% RH and 40% RH): ~3 wt %
- GVS weight loss, initial desorption cycle ([1]; 25° C.): 5 wt %
- GVS water gain, subsequent sorption cycle ([1]; 25° C.): 7.5%
- Aqueous solubility mg/mL 24 h: 7.41 mg/mL

SMILES: COc1cc(C2(F)CCN(C)CC2)ccc1-c1cc(Nc2cnc(C#N)cn2)n[nH]1 [Besylate Pattern A, 5-[[5-[4-(4-fluoro-1-methyl-4-piperidyl)-2-methoxy-phenyl]-1H-pyrazol-3-yl]amino]pyrazine-2-carbonitrile]
- GVS sharp increase, sorption cycle ([1]; from 40% RH to 60% RH): 6%
- GVS weight loss, initial desorption cycle ([1]; 25° C.): 2.5 wt %
- GVS steady decrease, following desorption cycle ([1]; from 90% RH to 30% RH): ~3 wt %
- GVS water gain, subsequent sorption cycle ([1]; 25° C.): 10%

SMILES: COc1cc(C2(F)CCN(C)CC2)ccc1-c1cc(Nc2cnc(C#N)cn2)n[nH]1 [hydrochloride pattern C, 5-[[5-[4-(4-fluoro-1-methyl-4-piperidyl)-2-methoxy-phenyl]-1H-pyrazol-3-yl]amino]pyrazine-2-carbonitrile]
- solubility FaSSGF (pH 1.37) [2]: 8.39 mg/mL
- solubility FaSSIF (pH 6.71) [2]: 0.15 mg/mL
- solubility FeSSIF (pH 5.14) [2]: 0.61 mg/mL
- Aqueous solubility mg/mL 24 h: 10.37 mg/mL
